Values of other authors as cited in patent publication US11066384B2, “Crystalline forms of ARN-509, preparation method and use thereof” (Crystal Pharmaceutical (Suzhou) Co., Ltd., priority 2018, dated 2021).

Assays:
[1] = low solubility and high permeability; cited from earlier work
prostate cancer = conditions: clinical trials; cited from earlier work

| Structure (SMILES) | BCS class [1] | Share of patients in whom the drug is effective (prostate cancer) |
| --- | --- | --- |
| CNC(=O)c1ccc(N2C(=S)N(c3cnc(C#N)c(C(F)(F)F)c3)C(=O)C23CCC3)cc1F [ARN-509, 4-[7-(6-cyano-5-trifluoromethylpyridin-3-yl)-8-oxo-6-thioxo-5,7-diazaspiro[3.4]oct-5-yl]-2-fluoro-N-methylbenzamide] | BCS II |  |
| CNC(=O)c1ccc(N2C(=S)N(c3ccc(C#N)c(C(F)(F)F)c3)C(=O)C2(C)C)cc1F [Enzalutamide] |  | about 70% |
